Test results published in ChEMBL document CHEMBL6092137, “Synergistic immune augmentation enabled by covalently conjugating TLR4 and NOD2 agonists” (Eur J Med Chem, 2024).
Activity calls are given as the source filed them. No cut-off for these calls is given here.

Legend:
Mus musculus [1] = species: Mus musculus; test: Activation of adaptive immune response in ovalbumin immunized mouse model assessed as increase in IgG2b titers incubated for 1 hrs and measured on day 42; type: functional, organism-based
T-cell [2] = test: Immunostimulatory activity in mouse spleen T-lymphocytes assessed as fold increase in proportion of IFN-gamma positive secreting CD4+ cells and measured on day 42 by staining based flow cytometric analysis relative to RC529 and muramyl dipeptide combination; type: functional; conditions: time 42 day
[3] = Induction of mouse BMDC cell maturation assessed as fold increase in CD80 positive cells incubated for 18 hrs by staining based flow cytometric analysis relative to combination of RC529 and Muramyl dipeptide; type: functional
[4] = Induction of mouse BMDC cell maturation assessed as change in CD80 positive cells incubated for 18 hrs by staining based flow cytometric analysis relative to control; type: functional
[5] = Toxicity in immunized BALB/c mouse assessed as inflammatory cell infiltration in liver measured on day 42 by H and E staining based analysis; conditions: 1008 h, time 42 day
Mus musculus [6] = species: Mus musculus; test: Activation of adaptive immune response in ovalbumin immunized mouse model assessed as increase in IgG2a titers incubated for 1 hrs and measured on day 42; type: functional, organism-based
[7] = Induction of mouse RAW264.7 cell maturation assessed as change in CD80 positive cells incubated for 18 hrs by staining based flow cytometric analysis relative to control; type: functional
[8] = Immunostimulatory activity in C57BL/6 mouse BMDC cells assessed as TLR4 inhibitor mediated reduction in IL-6 level at 9.3 uM incubated for 20 hrs in presence of GSK717 by ELISA; type: functional; parameters: scale not given: the % may be the effect or the level left
[9] = Toxicity in immunized BALB/c mouse assessed as vascular congestion in spleen measured on day 42 by H and E staining based analysis; conditions: in vivo, 1008 h, time 42 day
[10] = Induction of mouse BMDC cell maturation assessed as change in CD86 positive cells incubated for 18 hrs by staining based flow cytometric analysis relative to control; type: functional
[11] = Toxicity in immunized BALB/c mouse assessed as inflammatory cell infiltration in brain measured on day 42 by H and E staining based analysis; type: tissue-based; conditions: 1008 h, time 42 day
[12] = Toxicity in immunized BALB/c mouse assessed as inflammatory cell infiltration in heart measured on day 42 by H and E staining based analysis; type: tissue-based; conditions: 1008 h, time 42 day
[13] = Toxicity in immunized BALB/c mouse assessed as inflammatory cell infiltration in kidneys measured on day 42 by H and E staining based analysis; conditions: 1008 h, time 42 day
Mus musculus [14] = species: Mus musculus; test: Activation of adaptive immune response in ovalbumin immunized mouse model assessed as fold increase in IgG titers incubated for 1 hrs and measured on day 42 relative to combination of RC529 and Muramyl dipeptide; type: functional
[15] = Immunostimulatory activity in C57BL/6 mouse BMDC cells assessed as TLR4 inhibitor mediated reduction in IL-6 level at 9.3 uM incubated for 20 hrs in presence of TAK242 by ELISA; type: functional; parameters: scale not given: the % may be the effect or the level left
[16] = Immunostimulatory activity in female BALB/c mouse spleen T-lymphocytes assessed as fold increase in proportion of Tcm in CD8+ cells and measured on day 42 by staining based flow cytometric analysis relative to combination of RC529 and Muramyl dipeptide; type: functional, T-cell; conditions: time 42 day
[17] = Toxicity in immunized BALB/c mouse assessed as change in AST level measured on day 42 […]; conditions: in vivo, 1008 h, time 42 day
[18] = Toxicity in immunized BALB/c mouse assessed as vascular congestion in liver measured on day 42 by H and E staining based analysis; conditions: in vivo, 1008 h, time 42 day
[19] = Toxicity in immunized BALB/c mouse assessed as inflammatory cell infiltration in lungs measured on day 42 by H and E staining based analysis; conditions: 1008 h, time 42 day
[20] = Induction of mouse RAW264.7 cell maturation assessed as fold increase in CD80 and CD86 positive cells incubated for 18 hrs by staining based flow cytometric analysis relative to combination of RC529 and Muramyl dipeptide; type: functional
Mus musculus [21] = species: Mus musculus; test: Activation of adaptive immune response in ovalbumin immunized mouse model assessed as increase in IgG1 titers incubated for 1 hrs and measured on day 42; type: functional, organism-based
[22] = Toxicity in immunized BALB/c mouse assessed as vascular congestion in kidneys measured on day 42 by H and E staining based analysis; conditions: in vivo, 1008 h, time 42 day
[23] = Toxicity in immunized BALB/c mouse assessed as vascular congestion in lungs measured on day 42 by H and E staining based analysis; conditions: in vivo, 1008 h, time 42 day
Mus musculus [24] = test: Induction of innate immunity in BALB/c mouse assessed as fold increase in IL-6 level in serum at 22.53 ug, ip measured after 2 hrs by ELISA; type: functional; conditions: dose 22.53 µg
[25] = Immunostimulatory activity in female BALB/c mouse spleen T-lymphocytes assessed as fold increase in proportion of Tcm in CD4+ cells and measured on day 42 by staining based flow cytometric analysis relative to combination of RC529 and Muramyl dipeptide; type: functional, T-cell; conditions: time 42 day
Mus musculus [26] = species: Mus musculus; test: Activation of adaptive immune response in ovalbumin immunized mouse model assessed as increase in IgG titers incubated for 1 hrs and measured on 28 to 42 days; type: functional, organism-based
T-cell [27] = test: Immunostimulatory activity in mouse spleen T-lymphocytes assessed as fold increase in proportion of TNF-alpha and IFN-gamma double-positive secreting CD8+ cells and measured on day 42 by staining based flow cytometric analysis relative to combination of RC529 and muramyl dipeptide; type: functional; conditions: time 42 day
[28] = Immunostimulatory activity in C57BL/6 mouse BMDC cells assessed as TLR4/NOD2 inhibitor mediated reduction in IL-6 level at 9.3 uM incubated for 20 hrs in presence of TAK242/ GSK717 by ELISA; type: functional; parameters: scale not given: the % may be the effect or the level left
[29] = Toxicity in immunized BALB/c mouse assessed as vascular congestion in heart measured on day 42 by H and E staining based analysis; type: tissue-based; conditions: in vivo, 1008 h, time 42 day
T-cell [30] = test: Immunostimulatory activity in mouse spleen T-lymphocytes assessed as fold increase in proportion of TNF-alpha and IFN-gamma double-positive secreting CD4+ cells and measured on day 42 by staining based flow cytometric analysis RC529; type: functional; conditions: time 42 day
[31] = Toxicity in immunized BALB/c mouse assessed as vascular congestion in brain measured on day 42 by H and E staining based analysis; type: tissue-based; conditions: in vivo, 1008 h, time 42 day
[32] = Toxicity in immunized BALB/c mouse assessed as change in ALT level measured on day 42 […]; conditions: in vivo, 1008 h, time 42 day
[33] = Induction of mouse RAW264.7 cell maturation assessed as fold increase in CD86 positive cells incubated for 18 hrs by staining based flow cytometric analysis relative to combination of RC529 and Muramyl dipeptide; type: functional
[34] = Induction of mouse BMDC cell maturation assessed as fold increase in CD86 positive cells incubated for 18 hrs by staining based flow cytometric analysis relative to combination of RC529 and Muramyl dipeptide; type: functional
[35] = Induction of mouse BMDC cell maturation assessed as fold increase in CD80 and CD86 positive cells incubated for 18 hrs by staining based flow cytometric analysis relative to combination of RC529 and Muramyl dipeptide; type: functional
THP-1 = test: Cytotoxicity against human THP-1 cells assessed as reduction in cell viability by MTT assay; type: toxicity, cell-based
[36] = Induction of mouse RAW264.7 cell maturation assessed as fold increase in CD80 positive cells incubated for 18 hrs by staining based flow cytometric analysis relative to combination of RC529 and Muramyl dipeptide; type: functional
[37] = Toxicity in immunized BALB/c mouse assessed as inflammatory cell infiltration in spleen measured on day 42 by H and E staining based analysis; conditions: 1008 h, time 42 day
[38] = Immunostimulatory activity in mouse spleen T-lymphocytes assessed as fold increase in proportion of TNF-alpha positive secreting CD4+ cells and measured on day 42 by staining based flow cytometric analysis relative to RC529 and muramyl dipeptide combination; type: functional, T-cell
[39] = Induction of mouse RAW264.7 cell maturation assessed as change in CD86 positive cells incubated for 18 hrs by staining based flow cytometric analysis relative to control; type: functional
T-cell [40] = test: Immunostimulatory activity in mouse spleen T-lymphocytes assessed as fold increase in proportion of TNF-alpha and IFN-gamma double-positive secreting CD4+ cells and measured on day 42 by staining based flow cytometric analysis relative to muramyl dipeptide; type: functional; conditions: time 42 day

In the case of CCCCCCCCCCCCCC(=O)O[C@H](CCCCCCCCCCC)CC(=O)NCCO[C@@H]1O[C@H](CNC(=O)CCc2cn(CCO[C@@H]3O[C@H](CO)[C@@H](O)[C@H](O[C@H](C)C(=O)N[C@H](C)C(=O)N[C@H](CCC(=O)O)C(N)=O)[C@H]3NC(C)=O)nn2)[C@@H](OP(=O)(O)O)[C@H](OC(=O)C[C@@H](CCCCCCCCCCC)OC(=O)CCCCCCCCCCCCC)[C@H]1NC(=O)C[C@@H](CCCCCCCCCCC)OC(=O)CCCCCCCCCCCCC, the Activity (Mus musculus [1]) is reported as “Active”, the “fold change (FC)” value (T-cell [2]) is reported as 1.3 and the “fold change (FC)” value [3] is reported as 1.3. The Activity [4] was 31.5%, the Activity [5] was “Non-toxic” and the Activity (Mus musculus [6]) was “Active”. For the same compound, the Activity [7] was 40.4%, the Activity [8] was 58% and the Activity [9] was “Non-toxic”. For the same compound, the Activity [10] was 22.4%, the Activity [11] was “Non-toxic” and the Activity [12] was “Non-toxic”. The Activity [13] was “Non-toxic”, the “fold change (FC)” value (Mus musculus [14]) was 2 and the Activity [15] was 98%. The “fold change (FC)” value [16] was 2.7, the Activity [17] was “Non-toxic” and the Activity [18] was “Non-toxic”. For the same compound, the Activity [19] was “Non-toxic”, the “fold change (FC)” value [20] was 2.1 and the Activity (Mus musculus [21]) was “Active”. For the same compound, the Activity [22] was “Non-toxic”, the Activity [23] was “Non-toxic” and the “fold change (FC)” value (Mus musculus [24]) was 6.8. The “fold change (FC)” value [25] was 1.2, the Activity (Mus musculus [26]) was “Active” and the “fold change (FC)” value (T-cell [27]) was 3.3. The Activity [28] was 99%, the Activity [29] was “Non-toxic” and the “fold change (FC)” value (T-cell [30]) was 1.6. The Activity [31] was “Non-toxic”, the Activity [32] was “Non-toxic” and the “fold change (FC)” value [33] was 2.2. For the same compound, the “fold change (FC)” value [34] was 1.5, the “fold change (FC)” value [35] was 1.7 and the Activity (THP-1) was “Non-toxic”. For the same compound, the “fold change (FC)” value [36] was 1.4, the Activity [37] was “Non-toxic” and the “fold change (FC)” value [38] was 1.3. For the same compound, the Activity [39] was 29.9% and the “fold change (FC)” value (T-cell [40]) was 1.5.
